In PubChem BioAssay (NCI):
Values joined by “and” are separate entries in the source; they are usually repeats but may differ in a detail not shown here. Identical values can stand only once.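 All cell lines were grown in 96-well plates and treated with compound for 48 hours. GI50: concentration for 50% inhibition of growth. TGI: concentration producing complete growth inhibition.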

Legend:
Assay in all cases: NCI tumour cell line growth inhibition, 48 h
MOLT-4 leukemia = test system: MOLT-4 leukemia
UACC-257 melanoma = test system: UACC-257 melanoma
NCI-H226 lung = test system: NCI-H226 lung
COLO 205 colon = test system: COLO 205 colon
SK-OV-3 ovarian = test system: SK-OV-3 ovarian
RPMI-8226 leukemia = test system: RPMI-8226 leukemia
NCI-H23 lung = test system: NCI-H23 lung
NCI-H522 lung = test system: NCI-H522 lung
CCRF-CEM leukemia = test system: CCRF-CEM leukemia
LOX IMVI melanoma = test system: LOX IMVI melanoma

Compound	TGI (MOLT-4 leukemia)	TGI (UACC-257 melanoma)	TGI (NCI-H226 lung)	TGI (COLO 205 colon)	TGI (SK-OV-3 ovarian)	TGI (RPMI-8226 leukemia)	TGI (NCI-H23 lung)	TGI (NCI-H522 lung)	TGI (CCRF-CEM leukemia)	TGI (LOX IMVI melanoma)	GI50 (MOLT-4 leukemia)	GI50 (UACC-257 melanoma)	GI50 (NCI-H226 lung)	GI50 (COLO 205 colon)	GI50 (SK-OV-3 ovarian)	GI50 (RPMI-8226 leukemia)	GI50 (NCI-H23 lung)	GI50 (NCI-H522 lung)	GI50 (CCRF-CEM leukemia)	GI50 (LOX IMVI melanoma)
O=C1OC(O)C(Oc2c(Cl)cccc2Cl)=C1Cl (stereo not given)	85.7 µM	42.1 µM	42.6 µM	30.2 µM	43.5 µM	57 µM	38.9 µM	27.3 µM	53 µM	34 µM	–	–	–	–	–	–	–	–	–	–
C[N+](C)(C)CC(=O)N/N=C(\C(=O)NC1=C(Cl)C(=O)c2ccccc2C1=O)C(C#N)c1csc(-c2ccc([N+](=O)[O-])cc2)n1 (stereo not given)	> 100 µM	> 100 µM	> 100 µM	> 100 µM	> 100 µM	> 100 µM	> 100 µM	> 100 µM	> 100 µM	> 100 µM	–	–	–	–	–	–	–	–	–	–
Nc1ccn(C2OC(COC(=O)C34CC5CC(CC(C5)C3)C4)C(O)C2O)c(=O)n1 (stereo not given)	> 100 µM	> 100 µM	> 100 µM	> 100 µM	> 100 µM	> 100 µM	> 100 µM	> 100 µM	1.87 µM	> 100 µM	–	–	–	–	–	–	–	–	–	–
CC(=O)On1c(-c2ccccc2-c2nc3ccccc3n2OC(C)=O)nc2ccccc21	71.1 µM	> 100 µM	> 100 µM	46 µM	> 100 µM	71 µM	76.6 µM	51.5 µM	> 100 µM	> 100 µM	–	–	–	–	–	–	–	–	–	–
COc1ccc(OC)c2c1[nH]c(=O)c1c3ncccc3cn21	> 100 µM	> 100 µM	> 100 µM	> 100 µM	> 100 µM	> 100 µM	> 100 µM	> 100 µM	> 100 µM	4.29 µM	3.59 µM	5.05 µM	2.41 µM	2.79 µM	4.63 µM	6.78 µM	3.58 µM	4.71 µM	3.32 µM	1.8 µM
O=C1/C(=C\c2ccccn2)c2ccccc2N1c1c(Cl)cccc1Cl	> 65.7 µM	6.19 µM	3.42 µM	4.81 µM	10.2 µM	> 22.4 µM	15.3 µM	4.81 µM	> 100 µM	3.21 µM	4.2 µM	2.2 µM	1.7 µM	2.04 µM	3.01 µM	2.8 µM	3.29 µM	1.98 µM	3.31 µM	1.68 µM
COc1cc(Nc2nc3ccccc3cc2C(=O)Nc2ccc(F)c(F)c2)cc(OC)c1OC	6.15 µM	6.28 µM	7.93 µM	3.78 µM	7.8 µM	6.07 µM	8.51 µM	6.97 µM	> 100 µM	8.75 µM	2.04 µM	2.6 µM	2.55 µM	1.77 µM	2.65 µM	2.16 µM	2.84 µM	2.07 µM	3.12 µM	2.66 µM
COC(=O)C(Cc1nc2ccccc2[nH]c1=O)C(=O)C(=O)Nc1ccc([N+](=O)[O-])cc1[N+](=O)[O-] (stereo not given)	59.1 µM	36.9 µM	32.1 µM	35.2 µM	64.6 µM	85.1 µM	35.9 µM	20.8 µM	51.9 µM	44.4 µM	–	–	–	–	–	–	–	–	–	–
CCc1cccc(CC)c1NC(=O)C1=C(C)NC(C)=C(C(=O)Nc2c(CC)cccc2CC)C1c1ccc([N+](=O)[O-])cc1	43.3 µM	53.1 µM	> 100 µM	54.5 µM	96.4 µM	37.4 µM	> 100 µM	40.2 µM	45.8 µM	> 100 µM	–	–	–	–	–	–	–	–	–	–
Cc1sc2c(c1C)C(c1ccc(Cl)cc1)=N[C@@H](CC(=O)OC(C)(C)C)c1nnc(C)n1-2	23 µM and 17.8 µM	19.5 µM and 17 µM	22 µM and 22.8 µM	11.7 µM and 3.8 µM	19.4 µM and 15.6 µM	2.92 µM and 0.477 µM	18.7 µM and 18.6 µM	7.38 µM and 11.6 µM	23 µM and 22.9 µM	11.2 µM and 13.9 µM	1.61 µM and 1.81 µM	0.313 µM and 0.146 µM	2.81 µM and 10.3 µM	0.378 µM and 0.143 µM	0.756 µM and 0.326 µM	0.142 µM and 0.0397 µM	0.45 µM and 0.28 µM	0.179 µM and 0.0566 µM	0.644 µM and 0.773 µM	0.22 µM and 0.0673 µM
O=c1c2cccc3cccc(c4n1CCN=4)c32	> 100 µM	> 100 µM	> 100 µM	> 100 µM	> 100 µM	> 100 µM	> 100 µM	> 100 µM	> 100 µM	80.5 µM	–	–	–	–	–	–	–	–	–	–
